Reference: patent US20250270213A1, “PI3Ka INHIBITORS” (Synnovation Therapeutics, Inc., priority 2022, published 2025)

These compounds were tested on T47D (PIK3CA H1047R) cells (assay: pS473 AKT assay with 2.5% FBS, T47D cells). Conditions: Homo sapiens, pSer473 AKT, DMEM with 2.5% FBS, 2 h treatment, read-out: T47D_IC50.
Type: cell-based
Outline: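 T47D (PIK3CA H1047R) cells were switched to DMEM with 2.5% FBS and exposed to compounds for 2 h. After paraformaldehyde fixation, pSer473 AKT was detected by in-cell ELISA (rabbit primary, HRP anti-rabbit secondary, chemiluminescence); IC50 values were fitted from the concentration series.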

IC50, < 1000 nM:
Cc1cc(C(C)Nc2ccccc2C(=O)O)c2c(c1)c(=O)n(C)c1nn(-c3cncnc3)cc21 (centres unmarked) [Compound I-30, 2-((1-(4,7-Dimethyl-5-oxo-2-(pyrimidin-5-yl)-4,5-dihydro-2H-pyrazolo[3,4-c]isoquinolin-9-yl)ethyl)amino)benzoic acid]
Cc1cc(C(C)Nc2ccc(Cl)nc2C(=O)O)c2c(c1)c(=O)n(C)c1nn(-c3ccccc3C)cc21 (centres unmarked) [Compound I-31, 6-Chloro-3-((1-(4,7-dimethyl-5-oxo-2-(o-tolyl)-4,5-dihydro-2H-pyrazolo[3,4-c]isoquinolin-9-yl)ethyl)amino)picolinic acid]
COc1ccc2c3c(C(C)Nc4ccccc4C(=O)O)cc(C)cc3c(=O)n(C)c2n1 (centres unmarked) [Compound I-32, 2-[1-(3-Methoxy-5,8-dimethyl-6-oxo-benzo[c][1,8]naphthyridin-10-yl)ethylamino]benzoic acid]
Cc1cc(C(C)Nc2ccccc2C(=O)O)c2c(c1)c(=O)n(C)c1nc(N(C)C)ccc21 (centres unmarked) [Compound I-33, 2-[1-[3-(Dimethylamino)-5,8-dimethyl-6-oxo-benzo[c][1,8]naphthyridin-10-yl]ethylamino]benzoic acid]
COCCOc1ccc2c3c(C(C)Nc4ccccc4C(=O)O)cc(C)cc3c(=O)n(C)c2n1 (centres unmarked) [Compound I-34, 2-[1-[3-(2-Methoxyethoxy)-5,8-dimethyl-6-oxo-benzo[c][1,8]naphthyridin-10-yl]ethylamino]benzoic acid]
CC(Nc1ccccc1C(=O)O)c1cc(Cl)cc2c(=O)n(C)c3c(cnn3C)c12 (centres unmarked) [Compound I-35, 2-((1-(7-Chloro-3,4-dimethyl-5-oxo-4,5-dihydro-3H-pyrazolo[3,4-c]isoquinolin-9-yl)ethyl)amino)benzoic acid]
Cc1cc(C(C)Nc2ccccc2C(=O)O)c2c(c1)c(=O)n1c3c2cnn3CCC1 (centres unmarked) [Compound I-36, 2-((1-(8-Methyl-6-oxo-4,5-dihydro-3H,6H-2,2a,5a-triazaaceanthrylen-10-yl)ethyl)amino)benzoic acid]
Cc1cc(C(C)Nc2ccc(C)nc2C(=O)O)c2c(c1)c(=O)n1c3c2cnn3CCC1 (centres unmarked) [Compound I-37, 6-Methyl-3-((1-(8-methyl-6-oxo-4,5-dihydro-3H,6H-2,2a,5a-triazaaceanthrylen-10-yl)ethyl)amino)picolinic acid]
Cc1cc(C(C)Nc2ccccc2C(=O)O)c2c(c1)c(=O)n1c3c2cnn3C(C)CC1 (centres unmarked) [Compound I-38, 2-((1-(3,8-Dimethyl-6-oxo-4,5-dihydro-3H,6H-2,2a,5a-triazaaceanthrylen-10-yl)ethyl)amino)benzoic acid]
Cc1cc(C(C)Nc2ccc(Cl)nc2C(=O)O)c2c(c1)c(=O)n1c3c2cnn3C(C)CC1 (centres unmarked) [Compound I-39, 6-Chloro-3-((1-(3,8-dimethyl-6-oxo-4,5-dihydro-3H,6H-2,2a,5a-triazaaceanthrylen-10-yl)ethyl)amino)picolinic acid]
Cc1cc(C(C)Nc2ccc(Cl)nc2-c2cnn(C)c2)c2c(c1)c(=O)n(C)c1c2cnn1C1CCN(S(C)(=O)=O)CC1 (centres unmarked) [Example 183, 9-[1-[[6-chloro-2-(1-methylpyrazol-4-yl)-3-pyridyl]amino]ethyl]-4,7-dimethyl-3-(1-methylsulfonyl-4-piperidyl)pyrazolo[3,4-c]isoquinolin-5-one]
COC(=O)N1CCC(n2ncc3c4c(C(C)Nc5ccc(Cl)nc5-c5cnn(C)c5)cc(C)cc4c(=O)n(C)c32)CC1 (centres unmarked) [Example 184, methyl 4-[9-[1-[[6-chloro-2-(1-methylpyrazol-4-yl)-3-pyridyl]amino]ethyl]-4,7-dimethyl-5-oxo-pyrazolo[3,4-c]isoquinolin-3-yl]piperidine-1-carboxylate]
Cc1cc(C(C)Nc2ccc(Cl)nc2-c2cnn(C)c2)c2c(c1)c(=O)n(C)c1c2cnn1C1CCN(S(=O)(=O)C2CC2)CC1 (centres unmarked) [Example 185, 9-[1-[[6-chloro-2-(1-methylpyrazol-4-yl)-3-pyridyl]amino]ethyl]-3-(1-cyclopropylsulfonyl-4-piperidyl)-4,7-dimethyl-pyrazolo[3,4-c]isoquinolin-5-one]
Cc1cc(C(C)Nc2ccc(Cl)nc2-c2cnn(C)c2)c2c(c1)c(=O)n(C)c1c2cnn1C1CCN(C(=O)N(C)C)CC1 (centres unmarked) [Example 186, 4-(9-(1-((6-chloro-2-(1-methyl-1H-pyrazol-4-yl)pyridin-3-yl)amino)ethyl)-4,7-dimethyl-5-oxo-4,5-dihydro-3H-pyrazolo[3,4-c]isoquinolin-3-yl)-N,N-dimethylpiperidine-1-carboxamide]
CC(=O)N1CCC(n2ncc3c4c(C(C)Nc5ccc(Cl)nc5-c5ccc(=O)n(C)c5)cc(C)cc4c(=O)n(C)c32)CC1 (centres unmarked) [Example 187, 3-(1-acetylpiperidin-4-yl)-9-(1-((6-chloro-1′-methyl-6′-oxo-1′,6′-dihydro-[2,3′-bipyridin]-3-yl)amino)ethyl)-4,7-dimethyl-3,4-dihydro-5H-pyrazolo[3,4-c]isoquinolin-5-one]
CC(=O)N1CCC(n2ncc3c4c(C(C)Nc5ccc(Cl)nc5-c5ncn(C)n5)cc(C)cc4c(=O)n(C)c32)CC1 (centres unmarked) [Example 188, 3-(1-acetylpiperidin-4-yl)-9-(1-((6-chloro-2-(1-methyl-1H-1,2,4-triazol-3-yl)pyridin-3-yl)amino)ethyl)-4,7-dimethyl-3,4-dihydro-5H-pyrazolo[3,4-c]isoquinolin-5-one]
Cc1cc(C(C)Nc2ccc(C)nc2-c2cnn(C)c2)c2c(c1)c(=O)n(C)c1c2cnn1C1CCN(S(C)(=O)=O)CC1 (centres unmarked) [Example 189, 4,7-dimethyl-9-(1-((6-methyl-2-(1-methyl-1H-pyrazol-4-yl)pyridin-3-yl)amino)ethyl)-3-(1-(methylsulfonyl)piperidin-4-yl)-3,4-dihydro-5H-pyrazolo[3,4-c]isoquinolin-5-one]
Cc1cc(C(C)Nc2ccc(Cl)nc2-c2ncn(C)n2)c2c(c1)c(=O)n(C)c1c2cnn1C1CCN(S(C)(=O)=O)CC1 (centres unmarked) [Example 190, 9-(1-((6-chloro-2-(1-methyl-1H-1,2,4-triazol-3-yl)pyridin-3-yl)amino)ethyl)-4,7-dimethyl-3-(1-(methylsulfonyl)piperidin-4-yl)-3,4-dihydro-5H-pyrazolo[3,4-c]isoquinolin-5-one]
Cc1cc(C(C)Nc2ccc(Cl)nc2-c2ccc3c(c2)CN(C)C3=O)c2c(c1)c(=O)n(C)c1c2cnn1C1CCN(S(C)(=O)=O)CC1 (centres unmarked) [Example 191, 9-(1-((6-chloro-2-(2-methyl-1-oxoisoindolin-5-yl)pyridin-3-yl)amino)ethyl)-4,7-dimethyl-3-(1-(methylsulfonyl)piperidin-4-yl)-3,4-dihydro-5H-pyrazolo[3,4-c]isoquinolin-5-one]
Cc1cc(C(C)Nc2ccc(Cl)nc2-c2ccc3ncccc3c2)c2c(c1)c(=O)n(C)c1c2cnn1C1CCN(S(C)(=O)=O)CC1 (centres unmarked) [Example 192, 9-(1-((6-chloro-2-(quinolin-6-yl)pyridin-3-yl)amino)ethyl)-4,7-dimethyl-3-(1-(methylsulfonyl)piperidin-4-yl)-3,4-dihydro-5H-pyrazolo[3,4-c]isoquinolin-5-one]
Cc1cc(C(C)Nc2ccc(Cl)nc2-c2cnn(C)c2)c2c(c1)c(=O)n(C)c1c2cnn1C1CCN(C(=O)CO)CC1 (centres unmarked) [Example 193, 9-[1-[[6-Chloro-2-(1-methylpyrazol-4-yl)-3-pyridyl]amino]ethyl]-3-[1-(2-hydroxyacetyl)-4-piperidyl]-4,7-dimethyl-pyrazolo[3,4-c]isoquinolin-5-one]
Cc1cc(C(C)Nc2ccc(Cl)nc2-c2ncn(C)n2)c2c(c1)c(=O)n(C)c1c2cnn1C1CCN(C(=O)C2(C#N)CC2)CC1 (centres unmarked) [Example 194, 1-(4-(9-(1-((6-chloro-2-(1-methyl-1H-1,2,4-triazol-3-yl)pyridin-3-yl)amino)ethyl)-4,7-dimethyl-5-oxo-4,5-dihydro-3H-pyrazolo[3,4-c]isoquinolin-3-yl)piperidine-1-carbonyl)cyclopropane-1-carbonitrile]
Cc1cc(C(C)Nc2ccc(Cl)nc2-c2ncn(C)n2)c2c(c1)c(=O)n(C)c1c2cnn1C1CCN(C(=O)c2ccnn2C)CC1 (centres unmarked) [Example 195, 9-(1-((6-chloro-2-(1-methyl-1H-1,2,4-triazol-3-yl)pyridin-3-yl)amino)ethyl)-4,7-dimethyl-3-(1-(1-methyl-1H-pyrazole-5-carbonyl)piperidin-4-yl)-3,4-dihydro-5H-pyrazolo[3,4-c]isoquinolin-5-one]
Cc1cc(C(C)Nc2ccc(Cl)nc2-c2cnn(C)c2)c2c(c1)c(=O)n(C)c1c2cnn1C1CCN(C(=O)CN(C)C)CC1 (centres unmarked) [Example 196, 9-(1-((6-chloro-2-(1-methyl-1H-pyrazol-4-yl)pyridin-3-yl)amino)ethyl)-3-(1-(dimethylglycyl)piperidin-4-yl)-4,7-dimethyl-3,4-dihydro-5H-pyrazolo[3,4-c]isoquinolin-5-one]
Cc1cc(C(C)Nc2ccc(Cl)nc2-c2ncn(C)n2)c2c(c1)c(=O)n(C)c1c2cnn1C1CCN(C(=O)[C@@H]2CCCN2C)CC1 (stereo partly drawn) [Example 197, 9-(1-((6-chloro-2-(1-methyl-1H-1,2,4-triazol-3-yl)pyridin-3-yl)amino)ethyl)-4,7-dimethyl-3-(1-(methyl-L-prolyl)piperidin-4-yl)-3,4-dihydro-5H-pyrazolo[3,4-c]isoquinolin-5-one]
CC(Nc1ccc(Cl)nc1-c1cnn(C)c1)c1cc(C#N)cc2c(=O)n(C)c3c(cnn3C3CCN(C)CC3)c12 (centres unmarked) [Example 198, 9-(1-((6-Chloro-2-(1-methyl-1H-pyrazol-4-yl)pyridin-3-yl)amino)ethyl)-4-methyl-3-(1-methylpiperidin-4-yl)-5-oxo-4,5-dihydro-3H-pyrazolo[3,4-c]isoquinoline-7-carbonitrile]
